Measurements taken from patent US8916586B2, “Anti-angiogenic compound” (University College Dublin—National University of Ireland, …, priority 2011, dated 2014).
Entries after “also recorded” stand apart in the source; their conditions may differ.

How the values were obtained:
[1] = system: hyaloid vasculature in zebrafish; test: Zebrafish developmental angiogenesis assay: number of primary branches of hyaloid vasculature on dissected lens; type: in vivo
zebrafish larvae [2] = test: Gross morphology / toxicity and eye morphology of treated zebrafish larvae; type: in vivo; conditions: for toxic effects / gross morphology of larvae: treated 1-5 dpf
Method: Prior to analysis of the intraocular vasculature, the control and treated larvae were observed under an Olympus SZX16 stereo zoom microscope and screened for general malformations. Overall patterning of the vasculature (fin, gut and intersegmental vessels) was examined for abnormalities (FIGS. 7B and 9A).
(§1) Visual function was assessed using the optokinetic response, a behavioural assay that tests the ability of larval zebrafish to track moving stripes (Brockerhoff 2006). […] For these experiments the compounds were screened in zebrafish larvae as described above except that the drug (compound 11B) was added at either day 1, 2, 3 or 4, and all treated larvae were analysed at day 5.

[3] = system: mouse model of oxygen induced retinopathy (OIR); test: Mouse oxygen-induced retinopathy (OIR) model of ocular neovascularisation; type: in vivo; conditions: for avascular area of the retina in treated eyes: postnatal day 12-17, intravitreal
Method: To assess the ability of compound 11B to inhibit ocular neovascularisation in mammalian eyes, 11B was tested in the mouse model of oxygen induced retinopathy (OIR). […] 11B was injected intravitreally into a mouse model of oxygen-induced retinopathy (OIR). The OIR model was generated by placing postnatal day 7 (P7) mouse pups into hyperoxia (75% oxygen) for 5 days and then removing them to normoxia (21%) on postnatal day 12 (P12). The hyperoxic (high oxygen) environment causes retinal blood vessels to regress between P7 and P12. The normoxic environment on P12 is a relatively hypoxic (low oxygen) environment for the mice and causes the growth of new blood vessels (angiogenesis). For all samples, eyes were enucleated, fixed, flat mounted and then stained with an isolectin antibody to visualise the blood vessels. Blood vessels were quantified and those treated with lead compounds compared to controls.

[4] = system: trunk intersegmental vessels of zebrafish; test: Quantification of intersegmental vessel number in zebrafish larvae; type: in vivo; conditions: for inhibition of developmental angiogenesis of the trunk intersegmental vessels / inhibition at 10 µM: 10 μM; for inhibition of developmental angiogenesis of the trunk intersegmental vessels: added at 6 hours post-fertilisation; for dose-dependence of inhibition of intersegmental vessel development: 0.1-10 μM; for dose-dependence of inhibition of intersegmental vessel development / inhibition at 10 µM: added at 6 hours post fertilisation; for inhibition at 10 µM: Danio rerio, read-out: inhibition of intersegmental vessel formation
Method: […] Larvae were manually dechorionated, euthanised, and fixed in 4% PFA at 4° C. overnight before analysis. The larvae were then washed with PBS and transferred to depression slides for observation under epi-fluorescence in an Olympus SZX16 fluorescent microscope. The number of intersegmental vessels was counted and the average number was graphed for each drug. […] At the highest concentration (10 μM), 11B was seen to inhibit intersegmental vessel formation by 44%. 11F inhibited intersegmental vessel formation by 16% at the highest concentration (10 μM).

zebrafish larvae [5] = test: Visual function by optokinetic response (OKR) in zebrafish larvae; type: in vivo; conditions: treated from day 2-5 or day 3-5
Method: as §1

[6] = system: IL-6 secreted from explant cultures of human colorectal cancers; test: IL-6 secretion from human colorectal tumour explants (ELISA); type: cell-based; conditions: 72 hours
Method: Human colorectal tumour samples were taken directly from the pathology laboratory after surgery once adequate material was taken for diagnostic testing. The tumour samples were washed and stored in DMSO/tumour conditioning media (TCM). The samples were snap-frozen in liquid nitrogen and stored at −80° C. until compound testing was performed. Prior to compound testing, the tumours were thawed and incubated in fresh TCM for 24 hours. […] The TCM solutions were collected and stored at −20° C. and the remaining tumour explants were snap-frozen in liquid nitrogen and stored at −80° C. The protein content of each tumour sample was determined using the BCA protein assay. ELISA was used to determine the levels of VEGF, IL-8, MCP-1, GRO-α, IL-1β and IL-6. The secretion data were normalised according to the tumour sample's protein content.

[7] = system: dermal-derived normal human microvascular endothelial cells (HMVEC-d); test: Crystal violet-based proliferation assay in HMVEC-d; type: cell-based; conditions: 100 nM (FIG. 13), 24 h
Method: HMVEC-d were purchased from Clonetics, San Diego, Calif., USA. Cells were maintained in complete Endothelial Cell Medium (Clonetics® EGM®-2-MV BulletKit®) containing 500 ml of Endothelial Cell Basal Medium-2 and supplemented with hEGF, 0.5 ml; Hydrocortisone, 0.2 ml; GA-1000, 0.5 ml; FBS, 25 ml; VEGF, 0.5 ml; hFGF-B, 2.0 ml; R3-IGF-1, 0.5 ml; Ascorbic Acid, 0.5 ml in a 37° C. humidified atmosphere of 5% CO2/95% air. HMVEC-d were used for experiments between passages 4-8.
The responses to different compound treatments were examined using a crystal violet-based proliferation assay to test the effects of the compounds on cell proliferation. HMVEC-d were seeded in 96-well plates in complete medium at a density of 25,000 cells/cm^2 and allowed to attach in a humidified atmosphere of 5% CO2, 95% air and at 37° C. Cells were treated with the compounds at different concentrations in replicates wells, and cell proliferation was evaluated after 24 h. At the specific time point medium was removed, cells were fixed with 1% glutaraldehyde and stained with a 0.1% crystal violet solution (Pro-lab diagnostics) for 30 min. The plates were then washed extensively in water and air dried. Cell-associated dye was extracted with a 1% solution of Triton X100 and the absorbance was determined at 550 nm using a plate reader (Multiskan Ascent, Lab Systems).

SMILES: Oc1ccccc1/C=C/c1ccc2ccccc2n1 [11B]
- number of primary branches of hyaloid vasculature ([1]; 5 μM, treated day 2-5): significant reduction
- number of primary branches of hyaloid vasculature ([1]; 5 μM, treated day 3-5): no significant effect
- number of primary branches of hyaloid vasculature ([1]; 5 μM, treated day 4-5): no significant effect
- number of primary branches of hyaloid vasculature ([1]; 10 μM, treated day 2-5): significant reduction
- number of primary branches of hyaloid vasculature ([1]; 10 μM, treated day 3-5): significant reduction
- number of primary branches of hyaloid vasculature ([1]; 10 μM, treated day 4-5): no effect
- time-dependence of inhibition of developmental angiogenesis in the eye ([1]; drug added at day 1, 2, 3 or 4, analysed at day 5): time-dependent effect; also recorded: time-dependent manner
- wholemount morphology of larvae (zebrafish larvae [2]; 10 μM, treated from day 2-5 or day 3-5): normal
- toxic effects / gross morphology of larvae (zebrafish larvae [2]): do not induce toxic effects
- morphology of eyes in transverse sections (layering of the retina, size of retina/lens, presence of optic nerve) (zebrafish larvae [2]; treated larvae): normal
- avascular area of the retina in treated eyes ([3]; 0.5 μM): ~33%
- avascular area of the retina in treated eyes ([3]; 3 μM): ~30%
- increase in avascular retina relative to the avascular area in the P17 control ([3]; intraocular injections): ~2.4 fold
- inhibition of ocular neovascularisation in OIR model ([3]; intravitreal injection): inhibited angiogenesis; also recorded: can inhibit intraocular neovascularisation
- inhibition of developmental angiogenesis of the trunk intersegmental vessels [4]: significant inhibition
- dose-dependence of inhibition of intersegmental vessel development [4]: dose-dependent and statistically significant manner
- inhibition at 10 µM [4]: 44%
- effect on existing (earlier formed) intersegmental vessels of the trunk ([4]; added from day 1-5): no effect; also recorded: intact
- visual function, optokinetic response (OKR) (zebrafish larvae [5]): no significant effect; also recorded: not statistically different from controls
- level of IL-6 secreted by human tumour explants ([6]; 1 μM and 10 μM tested, concentration not given at place): significantly reduced
- level of IL-6 secreted by human tumour explants ([6]; 1 μM): significantly reduces
- level of IL-6 secreted by human tumour explants ([6]; 10 μM): significantly reduces
- effect on HMVEC-d proliferation [7]: no significant effect; also recorded: neither 11B nor 11F had a significant effect

SMILES: COc1cc2c(C3CCCN3C)cnc(Cc3ccc4c(c3)OCO4)c2cc1OC (stereo not shown) [11F, 1-(1,3-benzodioxol-5-ylmethyl)-6,7-dimethoxy-4-(1-methyl-2-pyrrolidinyl)isoquinoline]
- toxic effects / gross morphology of larvae (zebrafish larvae [2]): do not induce toxic effects
- inhibition of developmental angiogenesis of the trunk intersegmental vessels [4]: modest but significant inhibition
- dose-dependence of inhibition of intersegmental vessel development [4]: dose-dependent and statistically significant manner
- inhibition at 10 µM [4]: 16%
- effect on HMVEC-d proliferation [7]: no significant effect; also recorded: neither 11B nor 11F had a significant effect
